Among the data in ChEMBL document CHEMBL1141464, “Rational design of the first small-molecule antagonists of NHERF1/EBP50 PDZ domains” (Bioorg Med Chem Lett, 2008) are Activity values, retold here.

The target in test [1] is Beta-2 adrenergic receptor (Homo sapiens) (UniProt P07550). Nature of the test: Binding affinity to GST tagged human beta 2 adrenergic receptor PDZ1 domain upto 300 uM.
Test [2] addresses Cystic fibrosis transmembrane conductance regulator (Homo sapiens) (UniProt P13569). Nature of the test: Binding affinity to GST tagged human CFTR PDZ2 domain upto 300 uM.

Active and inactive are the calls of the source. The calls are words filed in the database; no cut-off is given here.

Sequence of Cystic fibrosis transmembrane conductance regulator (Homo sapiens) (P13569 whole entry, looked up, the tested form may be a part): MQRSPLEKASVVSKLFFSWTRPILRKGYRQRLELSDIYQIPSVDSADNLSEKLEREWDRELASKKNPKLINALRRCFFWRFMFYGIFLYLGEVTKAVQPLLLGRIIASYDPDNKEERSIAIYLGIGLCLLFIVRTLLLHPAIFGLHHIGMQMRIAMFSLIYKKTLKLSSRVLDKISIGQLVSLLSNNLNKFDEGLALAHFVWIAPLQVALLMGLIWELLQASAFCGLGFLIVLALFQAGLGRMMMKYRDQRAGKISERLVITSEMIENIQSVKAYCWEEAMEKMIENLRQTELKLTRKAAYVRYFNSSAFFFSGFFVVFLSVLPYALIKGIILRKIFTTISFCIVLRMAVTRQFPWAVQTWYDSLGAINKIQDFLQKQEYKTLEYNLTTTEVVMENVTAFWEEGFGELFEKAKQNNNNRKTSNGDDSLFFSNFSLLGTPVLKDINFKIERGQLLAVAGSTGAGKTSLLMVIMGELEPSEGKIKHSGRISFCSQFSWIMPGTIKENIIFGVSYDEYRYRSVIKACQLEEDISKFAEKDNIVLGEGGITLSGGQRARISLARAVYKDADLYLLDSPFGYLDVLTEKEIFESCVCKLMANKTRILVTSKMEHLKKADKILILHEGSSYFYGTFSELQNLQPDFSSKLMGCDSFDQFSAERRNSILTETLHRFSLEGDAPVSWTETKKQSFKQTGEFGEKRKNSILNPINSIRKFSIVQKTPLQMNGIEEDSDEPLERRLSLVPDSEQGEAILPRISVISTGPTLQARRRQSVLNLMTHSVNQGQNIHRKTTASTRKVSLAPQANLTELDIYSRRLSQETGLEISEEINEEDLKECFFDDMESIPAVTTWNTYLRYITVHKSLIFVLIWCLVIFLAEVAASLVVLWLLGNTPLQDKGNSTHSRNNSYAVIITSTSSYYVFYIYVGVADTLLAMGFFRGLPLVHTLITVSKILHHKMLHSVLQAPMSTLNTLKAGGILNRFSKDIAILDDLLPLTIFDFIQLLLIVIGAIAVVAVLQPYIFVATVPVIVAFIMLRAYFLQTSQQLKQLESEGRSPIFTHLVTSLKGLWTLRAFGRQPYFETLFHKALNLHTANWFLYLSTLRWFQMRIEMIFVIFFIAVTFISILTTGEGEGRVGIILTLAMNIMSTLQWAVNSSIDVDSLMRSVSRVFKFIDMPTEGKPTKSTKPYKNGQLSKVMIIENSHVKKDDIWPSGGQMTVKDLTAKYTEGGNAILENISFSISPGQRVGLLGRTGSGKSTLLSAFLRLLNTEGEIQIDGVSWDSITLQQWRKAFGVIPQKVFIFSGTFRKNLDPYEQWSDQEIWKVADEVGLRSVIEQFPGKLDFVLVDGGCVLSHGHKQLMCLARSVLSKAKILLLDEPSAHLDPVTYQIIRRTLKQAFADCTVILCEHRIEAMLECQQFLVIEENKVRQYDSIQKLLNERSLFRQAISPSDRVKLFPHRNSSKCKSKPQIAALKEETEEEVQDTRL
Sequence of Beta-2 adrenergic receptor (Homo sapiens) (P07550 whole entry, looked up, the tested form may be a part): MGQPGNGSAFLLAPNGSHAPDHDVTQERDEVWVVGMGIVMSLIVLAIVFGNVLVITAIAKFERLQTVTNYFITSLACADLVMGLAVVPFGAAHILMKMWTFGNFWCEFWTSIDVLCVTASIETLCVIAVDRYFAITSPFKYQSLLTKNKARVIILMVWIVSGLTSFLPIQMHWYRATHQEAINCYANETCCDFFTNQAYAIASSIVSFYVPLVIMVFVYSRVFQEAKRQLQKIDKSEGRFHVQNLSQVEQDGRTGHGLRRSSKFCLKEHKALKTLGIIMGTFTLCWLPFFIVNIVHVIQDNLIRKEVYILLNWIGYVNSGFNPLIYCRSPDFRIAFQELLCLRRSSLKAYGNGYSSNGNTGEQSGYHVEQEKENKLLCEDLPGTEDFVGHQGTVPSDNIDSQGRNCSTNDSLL

As to `CCCNC(=O)c1[nH]c2cc(C)c(C(=O)O)cc2c1CCc1ccccc1`, the result in test [1] and in test [2] was inactive.
